As a reminder, the EC50 is the concentration that produces a half-maximal response. By IC50 is commonly meant the concentration that gives 50% inhibition.

The results in this text go back to US20160355530A1, “HEPATITIS C INHIBITORS AND USES THEREOF” (AbbVie Inc., priority 2010, published 2016).

Assay [1] concerns chimeric replicon with genotype 4a NS5B. The experiment in a line: microbe, parasite or virus in culture. To be noted: Hepatitis C virus, read-out: 4a chimera 5% FBS EC50. The format is cell-based, HCV genotype 4a.
Assay [2] addresses T1, HCV NS5B polymerase 1a-H77 (Hepatitis C virus genotype 1a, UniProt P27958).
T1 construct: six-histidine tag; made in house; host or cells: E. coli
Put plainly: biochemical. Also on record: species or system HCV genotype 1a. To be noted: enzyme, strain 1a H77; read-out: HCV Polymerase Strain 1a H77 IC50. Summed up: (§1)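 E. coli-expressed NS5B (residues 1-570, His-tagged) transcribed a 2.1 kb HCV 1b negative-strand 3′-end RNA template (5 nM) with 20 μM CTP, 20 μM ATP and 0.284 μM [3H]UTP for 3 h at 30° C. Spermine-precipitated RNA was filter-captured and counted by scintillation; IC50 from nonlinear regression.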

In assay [3] the target is T2, HCV NS5B polymerase 1b Rice (Hepatitis C virus genotype 1b, UniProt Q9WMX2).
T2 construct: six-histidine tag; made in house; host or cells: E. coli
The experiment in a line: HCV NS5B polymerase enzymatic inhibition assay, strain 1b Rice. The format is biochemical, HCV genotype 1b. The settings on record: enzyme. Here is the method: Purified HCV NS5B polymerase enzymes were used for polymerase inhibition assays. All recombinant HCV polymerases contained the first 570 amino acids of the 591 amino acid native protein sequence and a six-histidine tag at the N-terminus or C-terminus to facilitate purification by affinity chromatography. The DNA nucleotide sequence for the HCV polymerase 1b BK strain was codon optimized for expression in E. coli. A synthetic gene was prepared from a series of overlapping oligonucleotides that were filled in using a DNA polymerase and amplified by PCR. The patient isolate HCV polymerases were cloned by RT-PCR methods using HCV RNA extracted from the serum of infected subjects obtained from ProMedDx and BioCollections (genotypes 2a, 2b, 3a, and 4a). Laboratory strains were cloned from plasmid DNA (1a-H77 or 1a-H77-C316Y) or from existing replicon cells (1b Rice). In all cases the amplified DNA was cloned into a protein expression vector (typically a pET vector from Novagen) and then multiple clones were sequenced to identify one whose NS5B sequence agreed with the population sequence. This sequence-confirmed clone was then transfected into E. coli for protein expression and purification. E. coli cultures were grown to a maximum optical density (OD) of 2-3 and then induced with 0.4 mM isopropyl beta-D-thiogalactopyranoside (IPTG) and grown for 20 hours at 20° C.
Proteins were purified using nickel affinity chromatography, and additional column steps were added including, ion exchange, size exclusion, hydrophobic ion, and poly-U affinity chromatography, as needed, depending on the sample being purified. The template RNA used in the polymerase enzymatic assay was a 2.1 kb construct that corresponds to the 3′-end of an HCV genotype 1b negative strand RNA.
The reaction was initiated by the addition of 20 μM CTP, 20 μM ATP, 0.284 μM (0.5 μCi) of 5,6-[^3H] UTP, 5 nM template RNA and 0.1 U/μL RNase inhibitor (RNasin, Promega), and allowed to proceed for three hours at 30° C. The final reaction volume was 50 μL. The reaction was terminated by the addition of 50 uL of 4 mM spermine in 10 mM Tris-HCl, pH 7.5, 1 mM EDTA. The quenched reaction was allowed to incubate for at least 15 minutes at room temperature, and then the precipitated RNA was captured by filtration through a glass fiber filter (GF/B, Millipore) in a 96 well format. The filter plate was washed five times with 200 μL of 2 mM spermine, 10 mM Tris-HCl, pH 8.0, 1 mM EDTA, and two times with ethanol. After drying thoroughly in air, 30 μL of Microscint-20 scintillation cocktail (Perkin Elmer) was added to each well, and the retained cpm were determined by scintillation counting. IC50 values were determined by nonlinear regression.
% Inhibition=100*[[I]/([I]+[IC50])] equation 1
V=kcat[S]/2(Km+[S])*(sqrt((IC50+I−E)̂2+(4*IC50*E))−(IC50+I−E)) equation 2

Assay [4] has as its target T3, HCV NS5B polymerase 1b BK strain (Hepatitis C virus genotype 1b, UniProt P26663).
T3 construct: six-histidine tag; made in house; host or cells: E. coli
Put plainly: HCV NS5B polymerase enzymatic inhibition assay, strain 1b BK. The format is biochemical. To be noted: enzyme, strain 1b BK; read-out: HCV Polymerase Strain 1b BK IC50. Summed up:
as §1

Assay [5] deals with HCV 1a-H77 C316Y mutant subgenomic replicon. Put plainly: Stable replicon cell culture assay (luciferase), 1a-H77-C316Y mutant. The format is cell-based, HCV genotype 1a. The settings on record: for EC50: Hepatitis C virus, read-out: Stable Replicon 1a H77-C316Y 5% FBS EC50; for Stable Replicon Fold Resistance C316Y/1a: ratio of stable replicon EC50s, C316Y / 1a H77.
The subject of assay [6] is HCV 1a-H77 subgenomic replicon. The experiment in a line: microbe, parasite or virus in culture. The format is cell-based, HCV genotype 1a. To be noted: Hepatitis C virus, stable replicon. In general terms: In antiviral work, replicon cells carry a viral genome segment that copies itself.
The subject of assay [7] is chimeric replicon with 2a-J6CF-derived NS5B. The experiment in a line: microbe, parasite or virus in culture. The class given is cell-based, HCV genotype 2a. The settings on record: Hepatitis C virus, read-out: 2a chimera 5% FBS EC50.
The target of assay [8] is T4, HCV NS5B polymerase 1a-H77-C316Y (Hepatitis C virus genotype 1a, UniProt P27958, C2736Y).
T4 construct: six-histidine tag; made in house; host or cells: E. coli
The experiment in a line: biochemical. Also on record: species or system HCV genotype 1a. Summed up:
as §1

The subject of assay [9] is HCV NS5B polymerase 1a-H77-C316Y. The experiment in a line: biochemical. Also on record: species or system HCV genotype 1a. The settings on record: ratio of enzyme IC50s, 1a H77-C316Y / 1a H77. Summed up:
as §1

Assay [10] deals with HCV 1b-Con1 subgenomic replicon. Put plainly: Stable replicon cell culture assay (luciferase), 1b-Con1; 5% FBS, optionally 40% human plasma. The settings on record: Hepatitis C virus. The format is cell-based, HCV genotype 1b.
For assay [11], the system named is chimeric replicon with genotype 2b NS5B. Put plainly: microbe, parasite or virus in culture. The settings on record: Hepatitis C virus, read-out: 2b chimera 5% FBS EC50. The class given is cell-based, HCV genotype 2b.
Assay [12] has as its system HCV 1a-H77-C316Y transient subgenomic replicon in Huh-7 derived cell line. The experiment in a line: microbe, parasite or virus in culture. The format is cell-based, HCV genotype 1a. The settings on record: for EC50: Hepatitis C virus, Huh-7, read-out: Transient Replicon 1a H77-C316Y 5% FBS EC50; for Transient Replicon Fold Resistance C316Y/1a: ratio of transient replicon EC50s, C316Y / 1a H77. In a few lines: (§2)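 Subgenomic replicon RNA (no Neo gene) electroporated into Huh-7-derived cells, plated at 5×10^3 cells/well; a 4 h plate gauged transfection efficiency. Cells exposed to 3-fold compound dilutions (0.5% DMSO) for 4 days at 37° C, then lysed for luciferase readout; EC50 calculated.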

For assay [13], the system named is HCV 1a-H77 transient subgenomic replicon in Huh-7 derived cell line. The experiment in a line: microbe, parasite or virus in culture. The format is cell-based, HCV genotype 1a. To be noted: Hepatitis C virus, Huh-7; transient replicon, 5% FBS; read-out: Transient Replicon 1a H77 5% FBS EC50. In a few lines: as §2
In assay [14] the test system is chimeric replicon with genotype 3a NS5B. Put plainly: microbe, parasite or virus in culture. To be noted: Hepatitis C virus, read-out: 3a chimera 5% FBS EC50. The format is cell-based, HCV genotype 3a.
Assay [15] deals with HCV 1b-BB7 subgenomic replicon. The experiment in a line: microbe, parasite or virus in culture. The format is cell-based, HCV genotype 1b. To be noted: Hepatitis C virus, stable replicon.
The mark [16] stands for this setting: 5% FBS, absence of human plasma, read-out: Stable Replicon 1a H77 5% FBS EC50.
[17] abbreviates: strain 1a H77, 5% FBS + 40% human plasma, read-out: 1a H77 5% FBS + 40% Human Plasma EC50.
Where [18] appears, read: strain 1a H77, 5% FBS, no human plasma, read-out: 1a H77 5% FBS EC50.
[19] abbreviates: strain 1a H77, 5% FBS, read-out: 1a H77 5% FBS EC50.
The mark [20] stands for this setting: strain 1b Con1, 5% FBS + 40% human plasma, read-out: 1b Con1 5% FBS + 40% Human Plasma EC50.
Where [21] appears, read: strain 1b Con1, 5% FBS, no human plasma, read-out: 1b Con1 5% FBS EC50.
[22] abbreviates: strain 1b Con1, 5% FBS, read-out: 1b Con1 5% FBS EC50.

Where two headings read alike, the source gives them in different places.

T3 sequence (P26663 2420-2989): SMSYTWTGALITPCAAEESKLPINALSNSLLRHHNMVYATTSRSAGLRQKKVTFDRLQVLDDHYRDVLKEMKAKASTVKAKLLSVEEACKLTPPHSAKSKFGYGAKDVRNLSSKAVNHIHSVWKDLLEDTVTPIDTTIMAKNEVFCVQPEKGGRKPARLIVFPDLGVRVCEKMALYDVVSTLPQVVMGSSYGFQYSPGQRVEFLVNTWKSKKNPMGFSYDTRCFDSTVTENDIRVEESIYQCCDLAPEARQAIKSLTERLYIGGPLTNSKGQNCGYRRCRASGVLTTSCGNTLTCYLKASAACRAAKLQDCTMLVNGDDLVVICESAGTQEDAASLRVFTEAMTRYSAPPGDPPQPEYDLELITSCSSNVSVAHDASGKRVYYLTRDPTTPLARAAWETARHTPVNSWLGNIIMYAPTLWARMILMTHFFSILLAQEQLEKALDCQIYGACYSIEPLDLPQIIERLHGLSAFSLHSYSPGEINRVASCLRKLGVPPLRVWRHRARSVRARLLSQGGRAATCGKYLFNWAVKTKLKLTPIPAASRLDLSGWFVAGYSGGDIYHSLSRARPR
T1 sequence (P27958 2421-2990): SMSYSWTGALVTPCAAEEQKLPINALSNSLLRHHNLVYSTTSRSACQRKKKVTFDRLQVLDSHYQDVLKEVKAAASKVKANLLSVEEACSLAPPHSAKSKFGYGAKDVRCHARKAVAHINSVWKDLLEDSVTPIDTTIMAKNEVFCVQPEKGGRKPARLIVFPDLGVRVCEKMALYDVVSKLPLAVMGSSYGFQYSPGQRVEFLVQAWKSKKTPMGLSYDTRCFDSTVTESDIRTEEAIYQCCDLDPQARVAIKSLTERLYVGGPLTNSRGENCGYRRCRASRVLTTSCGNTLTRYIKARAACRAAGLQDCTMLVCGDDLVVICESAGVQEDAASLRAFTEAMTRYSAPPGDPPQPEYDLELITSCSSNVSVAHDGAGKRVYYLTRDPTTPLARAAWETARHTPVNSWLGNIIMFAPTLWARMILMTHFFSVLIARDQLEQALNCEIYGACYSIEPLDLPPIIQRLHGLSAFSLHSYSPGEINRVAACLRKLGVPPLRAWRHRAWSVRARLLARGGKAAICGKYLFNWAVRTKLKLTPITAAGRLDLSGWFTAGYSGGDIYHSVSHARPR
T4 sequence (P27958 2421-2990 C2736Y): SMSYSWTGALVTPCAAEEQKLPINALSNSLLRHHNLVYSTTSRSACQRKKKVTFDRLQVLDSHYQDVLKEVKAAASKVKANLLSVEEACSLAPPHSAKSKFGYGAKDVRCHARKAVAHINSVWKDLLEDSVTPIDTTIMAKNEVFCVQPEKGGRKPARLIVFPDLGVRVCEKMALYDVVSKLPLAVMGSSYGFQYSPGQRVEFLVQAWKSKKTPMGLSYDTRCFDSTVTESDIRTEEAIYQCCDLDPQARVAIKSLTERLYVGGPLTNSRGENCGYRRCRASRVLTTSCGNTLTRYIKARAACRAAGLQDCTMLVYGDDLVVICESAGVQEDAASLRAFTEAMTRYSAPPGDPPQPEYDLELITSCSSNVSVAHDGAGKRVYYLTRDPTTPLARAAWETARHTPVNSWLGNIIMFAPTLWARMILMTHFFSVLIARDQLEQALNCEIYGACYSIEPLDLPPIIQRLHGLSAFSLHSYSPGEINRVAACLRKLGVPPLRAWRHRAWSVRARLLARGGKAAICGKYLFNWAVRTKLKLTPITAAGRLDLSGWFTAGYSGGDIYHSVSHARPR

Consider `COc1ccc(-c2nn3ccc(-c4cc(C(=O)NC5(c6ccccc6)CC5)ccc4C)cc3c2-c2ncc[nH]2)cc1` [Example 191, 3-[3-(1H-imidazol-2-yl)-2-(4-methoxyphenyl)pyrazolo[1,5-a]pyridin-5-yl]-4-methyl-N-(1-phenylcyclopropyl)benzamide], for which the concentration giving a half-maximal response (EC50) in assay [1] was 17.6 nM. The IC50 is 12 nM in [2] and 8.4 nM in assay [3].
Consider `COc1ccc(-c2nn3ccc(-c4cc(C(=O)NC5(c6ccccc6)CC5)ccc4C)cc3c2C2=NOCCN2)cc1` [Example 19, 3-[3-(5,6-dihydro-4H-1,2,4-oxadiazin-3-yl)-2-(4-methoxyphenyl)pyrazolo[1,5-a]pyridin-5-yl]-4-methyl-N-(1-phenylcyclopropyl)benzamide], for which the IC50 in assay [4] is 150 nM; in assay [2] it was 4 nM; in [8] it was 457 nM; in [3], 7.2 nM. Further, the EC50 in assay [5] turned out to be 1320 nM; in assay [1], 20.2 nM; in assay [6] (setting [16]), 33.2 nM; in assay [6] (setting [17]) it was 444 nM; in [6] (setting [18]) it was 33.2 nM; in [6] (setting [19]) it was 33.2 nM. Besides, the half-maximal effective concentration (EC50) in [7] amounted to 140 nM; in assay [10] (setting [20]), 86.8 nM; in [10] (setting [21]), 6.7 nM; in assay [10] (setting [22]), 6.7 nM. Besides, the “Stable Replicon Fold Resistance C316Y/1a” value in [5] is 41.0 fold. Moreover, in assay [9], the “C316Y/1a Fold Resistance” value worked out at 115 fold.
With `CC(C)CCN(c1cc2oc(-c3ccc(Nc4ccccc4)cc3)c(-c3ncc[nH]3)c2cc1C1CC1)S(C)(=O)=O` [Example 18, N-[2-(4-anilinophenyl)-5-cyclopropyl-3-(1H-imidazol-2-yl)-1-benzofuran-6-yl]-N-(3-methylbutyl)methanesulfonamide], the concentration for half-maximal inhibition (IC50) in assay [4] is 85.6 nM; in assay [2], 25.8 nM; in [8], 101 nM; in [3] it was 30.4 nM. Moreover, the EC50 came out at 13 nM in assay [11]; 0.3 nM in [12]; 0.7 nM in assay [13]; 3.8 nM in assay [5]; 9.4 nM in [1]; 5.4 nM in assay [6] (setting [16]). The half-maximal effective concentration (EC50) came to 234 nM in assay [6] (setting [17]); 5.4 nM in assay [6] (setting [18]); 5.4 nM in assay [6] (setting [19]); 602 nM in assay [10] (setting [20]); 9.5 nM in [10] (setting [21]); 9.5 nM in assay [10] (setting [22]). The EC50 in assay [14] was 12.3 nM. Besides, the “Transient Replicon Fold Resistance C316Y/1a” value in assay [12] was 0.4 fold. In [5], the “Stable Replicon Fold Resistance C316Y/1a” value is 0.711 fold. The “C316Y/1a Fold Resistance” value in assay [9] amounted to 4 fold.
`C=C(c1ccccc1)c1ccc(-c2oc3cc(N(CCC(C)C)S(C)(=O)=O)c(C4CC4)cc3c2-c2ncc[nH]2)cc1` [Example 167, N-{5-cyclopropyl-3-(1H-imidazol-2-yl)-2-[4-(1-phenylvinyl)phenyl]-1-benzofuran-6-yl}-N-(3-methylbutyl)methanesulfonamide]: the half-maximal inhibitory concentration (IC50) in assay [4] was found to be 160 nM; in assay [2] it was 49.2 nM; in [8], 7900 nM; in assay [3], 61.6 nM. Further, the results for the EC50 in [12] and in [13] were 6.11 nM and 8.1 nM, respectively. In addition, the “Transient Replicon Fold Resistance C316Y/1a” value in assay [12] was 1 fold. Moreover, in assay [9], the “C316Y/1a Fold Resistance” value came out at 161 fold.
With `CC1NC(c2c(-c3ccc(F)cc3)oc3cc(N(CCO)S(C)(=O)=O)c(C4CC4)cc23)=NO1` (stereo not shown) [Example 158, N-[5-cyclopropyl-2-(4-fluorophenyl)-3-(5-methyl-4,5-dihydro-1,2,4-oxadiazol-3-yl)-1-benzofuran-6-yl]-N-(2-hydroxyethyl)methanesulfonamide], the IC50 in [4] was 36.3 nM; in [2], 8.3 nM; in [8], 160 nM. Besides, the concentration for a half-maximal effect (EC50) was found to be 205 nM in assay [11]; 304 nM in assay [12]; 19.5 nM in assay [13]; 1150 nM in [5]; 176 nM in [1]; 23.3 nM in [6] (setting [16]). In addition, the 50% effective concentration (EC50) worked out at 260 nM in assay [6] (setting [17]); 23.3 nM in assay [6] (setting [18]); 23.3 nM in assay [6] (setting [19]); 302 nM in assay [7]; 43 nM in [14]; 335 nM in [15] (strain 1b BB7, 5% FBS + 40% human plasma, read-out: 1b BB7 5% FBS + 40% Human Plasma EC50). Also, the 50% effective concentration (EC50) in assay [15] (strain 1b BB7, 5% FBS, no human plasma, read-out: 1b BB7 5% FBS EC50) turned out to be 23.5 nM; in assay [15] (strain 1b BB7, 5% FBS, read-out: 1b BB7 5% FBS EC50), 23.5 nM. The “Transient Replicon Fold Resistance C316Y/1a” value in [12] amounted to 16 fold. The “Stable Replicon Fold Resistance C316Y/1a” value in [5] is recorded as 49.4 fold. Moreover, the “C316Y/1a Fold Resistance” value in assay [9] is given as 19 fold.
